Source: US12398097B2, “WDR5-MYC inhibitors” (Vanderbilt University, priority 2019, dated 2025)
pKi: −log10 of the molar value.

Target: WDR5 (Homo sapiens, UniProt P61964)
Experiment: Competition-based fluorescence polarization anisotropy assay
Settings: binding to WDR5; displacement of FITC-labeled small molecule probe (analogous to Example J2 or HCH-25) or peptide probe FITC-AHx-SEEEIDVVSV; pH 6.0; Ki converted from IC50
How it was run: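 Ki values derive from displacement of either a fluorescent small-molecule probe or a FITC-peptide probe from WDR5, monitored by fluorescence polarization. Assay run at pH 6.0 in 200 mM phosphate with 300 mM NaCl, 0.5 mM TCEP and 0.1% Chaps.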

Compound | pKi
COc1ccc(Br)cc1S(=O)(=O)Nc1cc(Cl)cc(NC(C)=O)c1O [Example J200, N-(3-((5-Bromo-2-methoxyphenyl)sulfonamido)-5-chloro-2-hydroxyphenyl)acetamide] | 4.16
O=C(N[C@H]1CCOC1)c1cc(Cl)cc(NS(=O)(=O)c2cc(Br)ccc2O)c1O [Example J22, (S)-3-((5-Bromo-2-hydroxyphenyl)sulfonamido)-5-chloro-2-hydroxy-N-(tetrahydrofuran-3-yl)benzamide] | 6.33
NC(=O)c1cc(C2CC2)cc(NS(=O)(=O)c2cc(Br)cc(Cl)c2O)c1O [Example J94, 3-((5-Bromo-3-chloro-2-hydroxyphenyl)sulfonamido)-5-cyclopropyl-2-hydroxybenzamide] | 6.40
COCCNC(=O)c1c(O)c(NS(=O)(=O)c2cc(Br)cc(Cl)c2O)cc(C2CC2)c1F [Example J147, 3-((5-Bromo-3-chloro-2-hydroxyphenyl)sulfonamido)-5-cyclopropyl-6-fluoro-2-hydroxy-N-(2-methoxyethyl)benzamide] | 6.64
O=C(O)c1cc(Cl)cc(NS(=O)(=O)c2cc(Cl)c(Cl)cc2O)c1O [Example J11, 5-Chloro-3-((4,5-dichloro-2-hydroxyphenyl)sulfonamido)-2-hydroxybenzoic acid] | 5.60
COC[C@H]1CCCN1C(=O)c1cc(OC(F)(F)F)cc(NS(=O)(=O)c2cc(Cl)ccc2O)c1O [Example J177, (R)-5-Chloro-2-hydroxy-N-(2-hydroxy-3-(2-(methoxymethyl)pyrrolidine-1-carbonyl)-5-(trifluoromethoxy)phenyl)benzenesulfonamide] | 5.31
O=C(NCc1cc[nH]c(=O)c1)c1cc(Cl)cc(NS(=O)(=O)c2cc(Br)ccc2O)c1O [Example J36, 3-((5-Bromo-2-hydroxyphenyl)sulfonamido)-5-chloro-2-hydroxy-N-((2-oxo-1,2-dihydropyridin-4-yl)methyl)benzamide] | 6.62
CN(CCO)C(=O)c1cc(C2CC2)cc(NS(=O)(=O)c2cc(Br)ccc2O)c1O [Example J82, 3-((5-Bromo-2-hydroxyphenyl)sulfonamido)-5-cyclopropyl-2-hydroxy-N-(2-hydroxyethyl)-N-methylbenzamide] | 5.42
CCc1cc(Br)cc(S(=O)(=O)Nc2cc(C3(C#N)CCC3)cc(C(=O)NC)c2O)c1O [Example J213, 3-((5-Bromo-3-ethyl-2-hydroxyphenyl)sulfonamido)-5-(1-cyanocyclobutyl)-2-hydroxy-N-methylbenzamide] | 4.91
NC(=O)c1cc(C2CC2)cc(NS(=O)(=O)c2cc(Br)cc([N+](=O)[O-])c2O)c1O [Example J104, 3-((5-Bromo-2-hydroxy-3-nitrophenyl)sulfonamido)-5-cyclopropyl-2-hydroxybenzamide] | 6.21
CNC(=O)c1cc(F)cc(NS(=O)(=O)c2cc(Br)ccc2O)c1O [Example J109, 3-((5-Bromo-2-hydroxyphenyl)sulfonamido)-5-fluoro-2-hydroxy-N-methylbenzamide] | 5.46
O=C(NC1CCOC1)c1cc(C2CC2)cc(NS(=O)(=O)c2cc(Br)ccc2O)c1O (stereo not shown) [Example J90, 3-((5-Bromo-2-hydroxyphenyl)sulfonamido)-5-cyclopropyl-2-hydroxy-N-(tetrahydrofuran-3-yl)benzamide] | 6.13
O=C(NCCO)c1cc(C2CC2)cc(NS(=O)(=O)c2cc(Br)ccc2O)c1O [Example J87, 3-((5-Bromo-2-hydroxyphenyl)sulfonamido)-5-cyclopropyl-2-hydroxy-N-(2-hydroxyethyl)benzamide] | 6.23
CNC(=O)c1cc(OC(F)(F)F)cc(NS(=O)(=O)c2cc(Cl)ccc2O)c1O [Example J175, 3-((5-Chloro-2-hydroxyphenyl)sulfonamido)-2-hydroxy-N-methyl-5-(trifluoromethoxy)benzamide] | 6.09
N#CC1(c2cc(NS(=O)(=O)c3cc(Br)ccc3O)c(O)c(C(N)=O)c2)CCCCC1 [Example J232, 3-((5-Bromo-2-hydroxyphenyl)sulfonamido)-5-(l-cyanocyclohexyl)-2-hydroxybenzamide] | 6.66
COCCNC(=O)c1cc(OC(F)(F)F)cc(NS(=O)(=O)c2cc(Br)ccc2O)c1O [Example J163, 3-((5-Bromo-2-hydroxyphenyl)sulfonamido)-2-hydroxy-N-(2-methoxyethyl)-5-(trifluoromethoxy)benzamide] | 6.24
O=C(NCCO)c1cc(F)cc(NS(=O)(=O)c2cc(Br)ccc2O)c1O [Example J111, 3-((5-Bromo-2-hydroxyphenyl)sulfonamido)-5-fluoro-2-hydroxy-N-(2-hydroxyethyl)benzamide] | 5.53

The next lines start with the values.

pKi | Compound
6.36 | O=S(=O)(Nc1cc(Cl)cc(S(=O)(=O)NCC2CCCO2)c1O)c1cc(Br)cc(Cl)c1O (stereo not shown) [Example S32, 5-Bromo-3-chloro-N-(5-chloro-2-hydroxy-3-(N-((tetrahydrofuran-2-yl)methyl)sulfamoyl)phenyl)-2-hydroxybenzenesulfonamide]
5.30 | COc1ccc(Cl)cc1S(=O)(=O)Nc1cc(Cl)cc([N+](=O)[O-])c1O [NE2, 5-Chloro-N-(5-chloro-2-hydroxy-3-nitrophenyl)-2-methoxybenzenesulfonamide]
6.51 | COc1ccc(Br)cc1S(=O)(=O)Nc1cc(C2(C#N)CCC2)cc(S(C)(=O)=O)c1O [Example S59, 5-Bromo-N-(5-(1-cyanocyclobutyl)-2-hydroxy-3-(methylsulfonyl)phenyl)-2-methoxybenzenesulfonamide]
7.40 | O=C(O)c1cc(OC(F)(F)F)cc(NS(=O)(=O)c2cc(Br)cc(Cl)c2O)c1O [HCH-24, 3-((5-Bromo-3-chloro-2-hydroxyphenyl)sulfonamido)-2-hydroxy-5-(trifluoromethoxy)benzoic acid]
6.77 | CS(=O)(=O)c1cc(NS(=O)(=O)c2cc(Br)cc(Cl)c2O)cc(C2CC2)c1 [Example S10, 5-Bromo-3-chloro-N-(3-cyclopropyl-5-(methylsulfonyl)phenyl)-2-hydroxybenzenesulfonamide]
7.40 | N#CC1(c2cc(NS(=O)(=O)c3cc(Br)cc4cccnc34)c(O)c(C(=O)O)c2)CCC1 [SN-6, 3-((6-bromoquinoline)-8-sulfonamido)-5-(1-cyanocyclobutyl)-2-hydroxybenzoic acid]
7.05 | CNC(=O)c1cc(S(F)(F)(F)(F)F)cc(NS(=O)(=O)c2cc(Br)cc3cccnc23)c1O [Example S67]
6.40 | O=C(O)c1cc(OC(F)(F)F)cc(NS(=O)(=O)c2cc(Br)cc(CCCO)c2O)c1O [HCH-27, 3-((5-Bromo-2-hydroxy-3-(3-hydroxypropyl)phenyl)sulfonamido)-2-hydroxy-5-(trifluoromethoxy)benzoic acid]
6.38 | CS(=O)(=O)c1cc(NS(=O)(=O)c2cc(Br)ccc2O)cc(S(F)(F)(F)(F)F)c1 [Example S13, 5-Bromo-2-hydroxy-N-(3-(methylsulfonyl)-5-(pentafluoro-λ^6-sulfaneyl)phenyl)benzenesulfonamide]
6.44 | NS(=O)(=O)c1cc(Cl)cc(NS(=O)(=O)c2cc(Br)cc(Cl)c2O)c1O [Example S27, 5-Bromo-3-chloro-N-(5-chloro-2-hydroxy-3-sulfamoylphenyl)-2-hydroxybenzenesulfonamide]
6.62 | CCS(=O)(=O)c1cc(Cl)cc(NS(=O)(=O)c2cc(Br)cc(Cl)c2O)c1O [Example S21, 5-Bromo-3-Chloro-N-(5-chloro-3-(ethylsulfonyl)-2-hydroxyphenyl)-2-hydroxybenzenesulfonamide]
